Data taken from US20240207292A1, “BORONIC ACID COMPOUNDS, COMPOSITIONS AND METHODS” (Trustees of Tufts College, priority 2021, published 2024).
Read-outs that look alike come from different tables or passages of the source. Square brackets hold non-standard residues; d marks the D form. Peptide text beside a SMILES is read from it. * marks the point of attachment. X1 = O=C1CN2CCN3CCN(CC(=O)*)CCN(CC2)CC(=O)O[CH2][Lu]([CH2]CO1)[CH2]COC(=O)C3; boroPro = OB(O)[C@@H]1CCCN1*

Key:
[1] = Degradation in aqueous solution of pH about 3 during HPLC purification and lyophilization; conditions: during HPLC purification and subsequent lyophilization
[2] = target: recombinant human dipeptidyl peptidase IV (DPPIV) (Homo sapiens (Human), UniProt P27487); experiment: In vitro assay dipeptidyl peptidase IV IC50 (Example 21); type: biochemical
Sequence of recombinant human dipeptidyl peptidase IV (DPPIV) (P27487 whole entry): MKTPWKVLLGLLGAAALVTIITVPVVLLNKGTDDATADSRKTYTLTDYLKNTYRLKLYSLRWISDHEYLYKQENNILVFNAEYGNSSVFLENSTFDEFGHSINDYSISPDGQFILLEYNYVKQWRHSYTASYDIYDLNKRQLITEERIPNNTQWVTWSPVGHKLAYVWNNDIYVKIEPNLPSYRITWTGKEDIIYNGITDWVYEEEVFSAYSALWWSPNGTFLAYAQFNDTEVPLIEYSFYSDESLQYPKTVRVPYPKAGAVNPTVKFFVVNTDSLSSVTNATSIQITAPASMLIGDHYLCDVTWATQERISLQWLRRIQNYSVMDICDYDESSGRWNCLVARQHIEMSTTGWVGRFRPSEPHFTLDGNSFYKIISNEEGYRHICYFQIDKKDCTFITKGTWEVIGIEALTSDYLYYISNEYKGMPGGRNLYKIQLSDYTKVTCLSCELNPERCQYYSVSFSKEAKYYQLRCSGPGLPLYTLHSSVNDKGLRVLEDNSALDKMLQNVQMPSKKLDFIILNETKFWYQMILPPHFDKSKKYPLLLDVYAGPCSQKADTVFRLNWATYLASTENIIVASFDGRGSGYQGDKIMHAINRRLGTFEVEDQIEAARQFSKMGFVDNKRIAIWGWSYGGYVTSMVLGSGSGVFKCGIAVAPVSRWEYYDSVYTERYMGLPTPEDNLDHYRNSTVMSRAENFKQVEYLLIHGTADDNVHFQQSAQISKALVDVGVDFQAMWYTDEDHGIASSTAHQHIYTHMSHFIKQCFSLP
Experimental: The purpose of this assay is to determine the IC50 of various inhibitors against recombinant human dipeptidyl peptidase IV (DPPIV), fibroblast activation protein (FAP) or prolyl oligopeptidase (PREP).
The assays are conducted in the following steps: • 1 Dissolve the compound in DMSO to a final concentration of 100 mM. From this, prepare a 1 mM stock at pH 7.5 in 50 mM Tris, 140 mM NaCl Buffer (FAP)/pH 7.5 in 25 mM Tris, 250 mM NaCl Buffer/[…]. • 2. Serial dilute (1:10) the 1 mM compound stocks prepared previously into the appropriate assay buffer (FAP: 50 mM Tris, 140 mM NaCl, pH 7.5/PREP: 25 mM Tris, 0.25 M NaCl, pH 7.5/DPPIV: 25 mM Tris, pH 8.0) to one row of a 96-well plate. • 3. […] Dilute the enzymes into their appropriate assay buffers. The final enzyme concentrations should be 0.1, 1.2, and 0.6 nM for DPPIV, FAP and PREP respectively. Add 180 μL to each well needed in columns 2-10. Column 1(A,B,C) should be prepared with 200 μl of appropriate assay buffer as control. Column 1(D,E,F,G,H) should be prepared with 20 μl of appropriate assay buffer and 180 ul enzyme as no inhibitor control. • 5. Add 20 μL of the compound of interest from the dilution plate prepared in step 2 to columns 2-10 of the assay plate where appropriate. Each sample should be tested in triplicate. Allow this to incubate for 10 minutes at room temperature, shaking the plate for the first two minutes. • 6. Add 10 μL of 20× substrate prepared in step 3 to each well and allow this to incubate for 15 minutes at room temperature, shaking the plate for the first two minutes. • 7. Read the fluorescence at λex: 380, λem: 460. (DPcore=[dAla|dSer|Gly]-[boroPro|Pro-nitrile], XXaa=alpha-amino acid)

[3] = Solubility in water after lyophilization
[4] = target: recombinant human prolyl oligopeptidase (PREP) (Homo sapiens (Human), UniProt P48147); experiment: In vitro assay prolyl oligopeptidase IC50 (Example 21); type: biochemical
Sequence of recombinant human prolyl oligopeptidase (PREP) (P48147 whole entry): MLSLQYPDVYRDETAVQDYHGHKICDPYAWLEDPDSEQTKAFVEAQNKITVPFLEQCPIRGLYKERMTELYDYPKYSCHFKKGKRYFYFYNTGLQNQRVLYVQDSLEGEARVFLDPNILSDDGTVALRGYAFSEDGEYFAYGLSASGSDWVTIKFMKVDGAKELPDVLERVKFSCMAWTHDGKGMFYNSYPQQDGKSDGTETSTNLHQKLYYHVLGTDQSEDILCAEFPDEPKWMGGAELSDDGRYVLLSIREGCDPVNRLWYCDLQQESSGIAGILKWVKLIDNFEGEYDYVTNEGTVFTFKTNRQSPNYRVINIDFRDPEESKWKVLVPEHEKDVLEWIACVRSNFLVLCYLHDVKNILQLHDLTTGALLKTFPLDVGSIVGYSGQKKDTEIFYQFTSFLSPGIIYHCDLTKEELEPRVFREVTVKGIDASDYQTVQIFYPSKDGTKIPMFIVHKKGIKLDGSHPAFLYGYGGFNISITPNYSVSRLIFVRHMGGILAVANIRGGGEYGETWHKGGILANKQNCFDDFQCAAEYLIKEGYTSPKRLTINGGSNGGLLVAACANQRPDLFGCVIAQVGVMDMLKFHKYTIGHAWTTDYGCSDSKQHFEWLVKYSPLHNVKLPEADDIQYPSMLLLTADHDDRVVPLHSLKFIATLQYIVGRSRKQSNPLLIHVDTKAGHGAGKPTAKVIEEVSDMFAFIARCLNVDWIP

[5] = target: recombinant human fibroblast activation protein (FAP) (Homo sapiens (Human), UniProt Q12884); experiment: In vitro assay fibroblast activation protein IC50 (Example 21); type: biochemical
Sequence of recombinant human fibroblast activation protein (FAP) (Q12884 whole entry): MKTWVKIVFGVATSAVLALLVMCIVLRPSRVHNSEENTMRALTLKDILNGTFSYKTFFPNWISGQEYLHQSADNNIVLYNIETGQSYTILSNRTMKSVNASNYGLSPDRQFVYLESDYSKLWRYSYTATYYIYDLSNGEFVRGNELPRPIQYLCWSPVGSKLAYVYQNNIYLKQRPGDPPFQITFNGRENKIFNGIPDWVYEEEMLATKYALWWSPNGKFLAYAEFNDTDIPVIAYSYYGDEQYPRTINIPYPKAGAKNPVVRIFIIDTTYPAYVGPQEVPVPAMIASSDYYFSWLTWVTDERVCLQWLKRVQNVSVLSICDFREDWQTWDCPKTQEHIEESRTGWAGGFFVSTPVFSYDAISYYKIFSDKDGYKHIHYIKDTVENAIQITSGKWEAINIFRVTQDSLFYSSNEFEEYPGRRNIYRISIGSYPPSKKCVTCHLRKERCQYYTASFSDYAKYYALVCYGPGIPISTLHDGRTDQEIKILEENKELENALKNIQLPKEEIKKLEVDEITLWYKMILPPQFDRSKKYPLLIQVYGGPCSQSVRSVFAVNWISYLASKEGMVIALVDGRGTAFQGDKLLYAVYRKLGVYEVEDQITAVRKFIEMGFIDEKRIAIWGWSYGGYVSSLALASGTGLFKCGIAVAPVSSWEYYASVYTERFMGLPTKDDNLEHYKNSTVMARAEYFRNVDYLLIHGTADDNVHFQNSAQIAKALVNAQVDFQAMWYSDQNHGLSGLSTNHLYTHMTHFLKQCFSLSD

physchem = conditions: water
[6] = test system: HEK-mFAP tumor xenografts; experiment: Efficacy and survival study, single injection of [^177Lu]-6522; type: in vivo, Fox Chase SCID mice
Experimental: The aim of the study was to assess the therapeutic efficacy of a single injection of [^177Lu]-6522 by evaluation tumor growth delay and median survival.
[^177Lu]-6522 is provided as described in Example 24 above. The following treatment compositions were prepared: • 1. Vehicle (selected formulation, 100 μL) • 2. Precursor (6522 compound) (80 μL) • 3. [.^77Lu]-6522 15 MBq (80 μL) • 4. [.^77Lu]-6522 30 MBq (80 μL) • 5. [.^77Lu]-6522 60 MBq (80 μL)
A total of 30 HEK-mFAP tumor-bearing mice were used for the study. […]
Mouse health checks were performed throughout the study on a weekly basis including body weight measurements. Tumor growth was monitored weekly with caliper measurements (tumor volume=length×width^2×0.5). […]. Mice were housed 5 to a cage with ad libitum access to food and water in 20° C. ambient temperature, 40%-50% humidity, and 12-hour light/12-hour dark cycle.
The mice were randomized into 5 groups, n=6 mice per group. The treatment compositions (1 through 5 above) were injected IV through the tail vein using a catheter (mounted with a 30 Ga needle). Injected doses were determined using a well counter (Capintec calibration). Tumor growth was monitored weekly with caliper measurements, and the mice were followed for survival.

[7] = test system: HEK-mFAP tumor xenografts
[8] = Stability of bortezomib with excipients in water, propyleneglycol (PG) or butylene glycol (BG) at 1 mg/mL, 50° C.; type: physicochemical; conditions: with N-Acetyl-L-methionine
Experimental: In Examples 1-3 below, Tables 1, 2 and 3 summarize the effectiveness of sulfur compounds in stabilizing bortezomib such as against oxidation and decomposition reactions. For each of the following Examples 1-3, the following procedures were used: Samples preparation: 100 mg of the API (active pharmaceutical ingredient) was suspended into 100 mL of water or other ratioed solvents, mixed well by using a vortex mixer and sonicator (with gentle warm if necessary) to make a 1 mg/mL of solution A. 10 mg of each excipient was weighed into avial, and 1 mL of solution A was added, mixed well to give the test solution B (10:1 of excipient/API). Took 100 μL of solution B and diluted into 1 mL with solution A to give the test solution C (1:1 of excipient/API). Took 100 μL of solution C and diluted into 1 mL with solution A to give the test solution D (0.1:1 of excipient/API). For solid powderform of Bortezomib with the excipients, method in US 2005/0282742 A1 was adopted. […]
Aqueous formulations of bortezomib together with a number of sulfur-containing compounds in varying weight ratios were evaluated for stability over time based on purity of Bortezomib in water, propyleneglycol (PG) or butylene glycol (BG) at 1 mg/mL, 50° C.

C[C@@H](NC(=O)c1ccc(CNC(=O)CN2CCN3CCN4CCN(CC2)CC(=O)[O][Lu]([O]C(=O)C3)[O]C(=O)C4)cc1)C(=O)N1CCC[C@H]1B(O)O [6555LU]
degradation in aqueous solution [1]: did not observe any sign of degradation | IC50 [2]: > 100 µM | solubility in water [3]: > 50 mg/mL | IC50 [4]: 3.4 µM | IC50 [5]: 0.014 µM

C[C@@H](NC(=O)[C@H]1CC[C@H](CNC(=O)CN2CCN(CC(=O)O)CCN(CC(=O)O)CCN(CC(=O)O)CC2)CC1)C(=O)N1CCC[C@H]1B(O)O [compound 6952]
solubility (physchem): > 50 mg/mL | degradation in aqueous solution [1]: did not observe any sign of degradation | IC50 ([2]; Gly-Pro-AMC, 0.1 nM enzyme): > 100 µM | IC50 ([4]; Z-Gly-Pro-AMC, 0.6 nM enzyme): 4.6 µM | IC50 ([5]; Z-Gly-Pro-AMC, 1.2 nM enzyme): 0.0047 µM

CC(C)[C@H](NC(=O)CNC(=O)CNC(=O)CN1CCN2CCN3CCN(CC1)CC(=O)O[CH2][Lu]([CH2]COC(=O)C2)[CH2]COC(=O)C3)C(=O)N[C@H](C)C(=O)N1CCC[C@H]1B(O)O [[^177Lu]-6522] (X1-GGV[dA]-boroPro)
survival benefit ([6]; 15 and 30 MBq groups): did not translate in a survival benefit | tumor growth delay ([6]; 15 and 30 MBq groups): tumor growth delay was observed | survival benefit compared to the vehicle or precursor group ([6]; 60 MBq single IV injection): statically significant survival benefit | kidneys uptake ([7]; 4 h p.i., IV): 2.35 ± 0.51 % ID/g | tumor uptake ([7]; 4 h p.i., IV, HEK-mFAP tumor-bearing mice): 33.04 ± 5.29 % ID/g | Blood uptake, Mean (% ID/g) ([7]; 4 h p.i., IV): 0.3063 % ID/g | Blood uptake, Mean (% ID/g) ([7]; 24 h p.i., IV): 0.0085 % ID/g | Blood uptake, Mean (% ID/g) ([7]; 48 h p.i., IV): 0.0029 % ID/g | Blood uptake, Mean (% ID/g) ([7]; 168 h p.i., IV): 0.0015 % ID/g | Bone uptake, Mean (% ID/g) ([7]; 4 h p.i., IV): 1.8037 % ID/g | Bone uptake, Mean (% ID/g) ([7]; 24 h p.i., IV): 0.2658 % ID/g | Bone uptake, Mean (% ID/g) ([7]; 48 h p.i., IV): 0.4106 % ID/g | Bone uptake, Mean (% ID/g) ([7]; 168 h p.i., IV): 0.3959 % ID/g | Brain uptake, Mean (% ID/g) ([7]; 4 h p.i., IV): 0.0281 % ID/g | Brain uptake, Mean (% ID/g) ([7]; 24 h p.i., IV): 0.0036 % ID/g | Brain uptake, Mean (% ID/g) ([7]; 48 h p.i., IV): 0.0033 % ID/g | Brain uptake, Mean (% ID/g) ([7]; 168 h p.i., IV): 0.0020 % ID/g | Heart uptake, Mean (% ID/g) ([7]; 4 h p.i., IV): 0.1528 % ID/g | Heart uptake, Mean (% ID/g) ([7]; 24 h p.i., IV): 0.0332 % ID/g | Heart uptake, Mean (% ID/g) ([7]; 48 h p.i., IV): 0.0311 % ID/g | Heart uptake, Mean (% ID/g) ([7]; 168 h p.i., IV): 0.0256 % ID/g | Kidneys uptake, Mean (% ID/g) ([7]; 4 h p.i., IV): 2.3525 % ID/g | Kidneys uptake, Mean (% ID/g) ([7]; 24 h p.i., IV): 0.9585 % ID/g | Kidneys uptake, Mean (% ID/g) ([7]; 48 h p.i., IV): 0.5318 % ID/g | Kidneys uptake, Mean (% ID/g) ([7]; 168 h p.i., IV): 0.1670 % ID/g | Liver uptake, Mean (% ID/g) ([7]; 4 h p.i., IV): 0.3774 % ID/g | Liver uptake, Mean (% ID/g) ([7]; 24 h p.i., IV): 0.1585 % ID/g | Liver uptake, Mean (% ID/g) ([7]; 48 h p.i., IV): 0.1237 % ID/g | Liver uptake, Mean (% ID/g) ([7]; 168 h p.i., IV): 0.0725 % ID/g | Lung uptake, Mean (% ID/g) ([7]; 4 h p.i., IV): 0.3331 % ID/g | Lung uptake, Mean (% ID/g) ([7]; 24 h p.i., IV): 0.0306 % ID/g | Lung uptake, Mean (% ID/g) ([7]; 48 h p.i., IV): 0.0312 % ID/g | Lung uptake, Mean (% ID/g) ([7]; 168 h p.i., IV): 0.0257 % ID/g | Muscle uptake, Mean (% ID/g) ([7]; 4 h p.i., IV): 0.4649 % ID/g | Muscle uptake, Mean (% ID/g) ([7]; 24 h p.i., IV): 0.0315 % ID/g | Muscle uptake, Mean (% ID/g) ([7]; 48 h p.i., IV): 0.0518 % ID/g | Muscle uptake, Mean (% ID/g) ([7]; 168 h p.i., IV): 0.0604 % ID/g | Pancreas uptake, Mean (% ID/g) ([7]; 4 h p.i., IV): 0.2167 % ID/g | Pancreas uptake, Mean (% ID/g) ([7]; 24 h p.i., IV): 0.0347 % ID/g | Pancreas uptake, Mean (% ID/g) ([7]; 48 h p.i., IV): 0.0275 % ID/g | Pancreas uptake, Mean (% ID/g) ([7]; 168 h p.i., IV): 0.0197 % ID/g | Skin uptake, Mean (% ID/g) ([7]; 4 h p.i., IV): 0.9769 % ID/g | Skin uptake, Mean (% ID/g) ([7]; 24 h p.i., IV): 0.1158 % ID/g | Skin uptake, Mean (% ID/g) ([7]; 48 h p.i., IV): 0.0906 % ID/g | Skin uptake, Mean (% ID/g) ([7]; 168 h p.i., IV): 0.0837 % ID/g | Small intestine uptake, Mean (% ID/g) ([7]; 4 h p.i., IV): 0.2091 % ID/g | Small intestine uptake, Mean (% ID/g) ([7]; 24 h p.i., IV): 0.0580 % ID/g | Small intestine uptake, Mean (% ID/g) ([7]; 48 h p.i., IV): 0.0499 % ID/g | Small intestine uptake, Mean (% ID/g) ([7]; 168 h p.i., IV): 0.0277 % ID/g | Spleen uptake, Mean (% ID/g) ([7]; 4 h p.i., IV): 0.2587 % ID/g | Spleen uptake, Mean (% ID/g) ([7]; 24 h p.i., IV): 0.1418 % ID/g | Spleen uptake, Mean (% ID/g) ([7]; 48 h p.i., IV): 0.1340 % ID/g | Spleen uptake, Mean (% ID/g) ([7]; 168 h p.i., IV): 0.1437 % ID/g | Stomach uptake, Mean (% ID/g) ([7]; 4 h p.i., IV): 0.1706 % ID/g | Stomach uptake, Mean (% ID/g) ([7]; 24 h p.i., IV): 0.0528 % ID/g | Stomach uptake, Mean (% ID/g) ([7]; 48 h p.i., IV): 0.0331 % ID/g | Stomach uptake, Mean (% ID/g) ([7]; 168 h p.i., IV): 0.0210 % ID/g | Tumor uptake, Mean (% ID/g) ([7]; 4 h p.i., IV): 33.0435 % ID/g | Tumor uptake, Mean (% ID/g) ([7]; 24 h p.i., IV): 12.9944 % ID/g | Tumor uptake, Mean (% ID/g) ([7]; 48 h p.i., IV): 7.6749 % ID/g | Tumor uptake, Mean (% ID/g) ([7]; 168 h p.i., IV): 3.9910 % ID/g | kidneys uptake ([7]; day 7 p.i., IV): 0.17 ± 0.02 % ID/g | localization in tumor and normal tissue ([7]; up to 168 h p.i.): high localization in tumor xenografts and low normal tissue uptake

CSCC[C@H](NC(C)=O)C(=O)O [N-Acetyl-L-methionine, N-acetyl-L-methionine]
protection of bortezomib [8]: essentially complete protection
